Measurements reported in PubChem BioAssay (NCI).
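Protocol summary: plate cells (96-well), add compound at 5 concentrations, incubate 48 h, interpolate endpoints linearly. Here, GI50 denotes the concentration required for 50% inhibition of growth. TGI is the concentration that stops growth completely.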

Assays:
Assay in all cases: NCI-60 cell line screen, 48 h
HCT-116 colon = test system: HCT-116 colon
IGROV1 ovarian = test system: IGROV1 ovarian
MALME-3M melanoma = test system: MALME-3M melanoma
OVCAR-3 ovarian = test system: OVCAR-3 ovarian
SF-268 CNS = test system: SF-268 CNS
SW-620 colon = test system: SW-620 colon
CAKI-1 renal = test system: CAKI-1 renal
HL-60(TB) leukemia = test system: HL-60(TB) leukemia
HOP-62 NSCLC = test system: HOP-62 NSCLC
NCI-H460 lung = test system: NCI-H460 lung

Row | SMILES | TGI (HCT-116 colon) [µM] | TGI (IGROV1 ovarian) [µM] | TGI (MALME-3M melanoma) [µM] | TGI (OVCAR-3 ovarian) [µM] | TGI (SF-268 CNS) [µM] | TGI (SW-620 colon) [µM] | GI50 (CAKI-1 renal) [µM] | TGI (CAKI-1 renal) [µM] | GI50 (HL-60(TB) leukemia) [µM] | TGI (HL-60(TB) leukemia) [µM] | GI50 (HOP-62 NSCLC) [µM] | TGI (HOP-62 NSCLC) [µM] | GI50 (IGROV1 ovarian) [µM] | GI50 (NCI-H460 lung) [µM] | TGI (NCI-H460 lung) [µM] | GI50 (OVCAR-3 ovarian) [µM] | GI50 (SF-268 CNS) [µM] | GI50 (SW-620 colon) [µM] | GI50 (HCT-116 colon) [µM] | GI50 (MALME-3M melanoma) [µM]
1 | O=C(O)CCSCCCN1C(=O)c2ccccc2C1=O | > 100 | > 100 | > 100 | > 100 | > 100 | > 100 | – | – | – | – | – | – | – | – | – | – | – | – | – | –
2 | NC(=NC1CCCCCCC1)c1ccc(N2CCN(c3ccc(C(N)=NC4CCCCCCC4)cc3)CC2)cc1 | – | > 100 | – | 13.8 | 42.7 | 38.5 | 23.1 | 63.1 | 16 | > 100 | 14.4 | 62.8 | 53.1 | 11.9 | > 100 | 1.73 | 16.7 | 8.91 | – | –
3 | CC(=O)NCCSC(=O)c1ccccc1 | 0.275 | > 29.6 | 0.304 | 0.944 | 2.02 | – | – | 0.239 | 0.026 | 0.829 | – | 0.525 | – | – | 6.44 | – | – | – | – | –
4 | O=C1CC(c2ccc3c(c2)OCO3)Nc2cc3c(cc21)OCO3 (stereo unspecified) | > 100 | – | – | 1.45 | > 100 | > 100 | 0.527 | > 100 | 0.252 | 0.637 | 0.523 | > 100 | – | 0.353 | 13 | 0.344 | 0.83 | 0.357 | 1.27 | –
5 | Cc1cc(C)c2c(c1)Nc1ccccc1P2c1ccccc1 (stereo unspecified) | – | > 100 | 71.8 | 61 | > 100 | > 100 | – | 98.1 | – | 59.6 | – | 66.8 | – | – | 50.8 | – | – | – | – | –
6 | CCCCCCC#Cc1ccccc1C#CCO | 49.6 | 43.3 | – | 27.6 | 65.2 | 38 | 14.6 | 33.2 | 38.7 | > 100 | 22.4 | 48.3 | 18 | 32.8 | > 100 | 14.5 | 30.6 | 20.1 | 23.4 | –
7 | O=c1c2cc(Br)ccc2nc(-c2ccccc2Cl)n1NCC1(O)OCC(O)C(O)C1O (stereo unspecified) | > 100 | – | > 100 | > 100 | > 100 | > 100 | – | > 100 | – | > 100 | – | > 100 | – | – | > 100 | – | – | – | – | –
8 | N#Cc1cccc(C(=O)Nc2cccc(NC(=O)c3cccc(C#N)c3)c2)c1 | > 100 | > 100 | – | – | 56 | > 100 | 6.95 | > 100 | – | – | 33.5 | 74 | > 100 | 42.8 | > 100 | – | 17 | > 100 | 78.1 | –
9 | CC(C)C[C@H](NC(=O)[C@H]1O[C@@H]1C(=O)O)C(=O)NCCc1ccc(O)cc1 | > 100 | > 100 | > 100 | > 100 | > 100 | > 100 | > 100 | > 100 | – | – | > 100 | > 100 | > 100 | > 100 | > 100 | > 100 | > 100 | > 100 | > 100 | > 100
